From PubChem BioAssay AID330 (DTP/NCI, 2004)
“And” between values parts separate entries of the source, which are not always exact repeats. Equal entries are not always repeated. Inconclusive results and toxic doses are left out. Rule for the calls: active = survival T/C of 150% or more; inactive = T/C below 125% in these data.

Test system: P388 leukemia ip, CD2F1 mice, survival T/C
Experiment: NCI In Vivo Anticancer Drug Screen. Data for tumor model P388 Leukemia (intraperitoneal) in CD2F1 (CDF1) mice
Conditions: endpoint: median survival time, higher = longer survival
Procedure, shortened: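 Mice carrying the transplanted tumor received test compound or vehicle. Survival was recorded in each group, and the value is the treated-group measurement divided by that of the vehicle-treated control group.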

[1] = dose: 100.0 mg/kg/injection, schedule: Q01DX009 (ip), vehicle: saline
[2] = dose: 200.0 mg/kg/injection, schedule: Q01DX009 (ip), vehicle: saline
[3] = dose: 100.0 mg/kg/injection, schedule: Q04DX003 (ip), vehicle: saline
[4] = dose: 200.0 mg/kg/injection, schedule: Q04DX003 (ip), vehicle: saline
[5] = dose: 50.0 mg/kg/injection, schedule: Q01DX005 (ip), vehicle: saline with Tween-80
[6] = dose: 100.0 mg/kg/injection, schedule: Q01DX005 (ip), vehicle: saline with Tween-80
[7] = dose: 200.0 mg/kg/injection, schedule: Q01DX005 (ip), vehicle: saline with Tween-80
[8] = dose: 50.0 mg/kg/injection, schedule: Q01DX009 (ip), vehicle: saline
[9] = dose: 100.0 mg/kg/injection, schedule: Q04DX003 (ip), vehicle: Klucel (hydroxypropylcellulose) (HPC)
[10] = dose: 200.0 mg/kg/injection, schedule: Q04DX003 (ip), vehicle: Klucel (hydroxypropylcellulose) (HPC)
[11] = dose: 400.0 mg/kg/injection, schedule: Q04DX003 (ip), vehicle: Klucel (hydroxypropylcellulose) (HPC)
[12] = dose: 60.0 mg/kg/injection, schedule: Q01DX005 (ip), vehicle: saline with Tween-80
[13] = dose: 120.0 mg/kg/injection, schedule: Q01DX005 (ip), vehicle: saline with Tween-80
[14] = dose: 240.0 mg/kg/injection, schedule: Q01DX005 (ip), vehicle: saline with Tween-80

Measured: T/C

Cc1cc2cc(N)ccc2[se]1
inactive: dose: 50.0 mg/kg/injection, schedule: Q01DX009 (ip), vehicle: suspension in saline 98 % of control | [1] 94 % of control | dose: 100.0 mg/kg/injection, schedule: Q01DX009 (ip), vehicle: suspension in saline 108 % of control | [2] 89 % of control | dose: 200.0 mg/kg/injection, schedule: Q01DX009 (ip), vehicle: suspension in saline 101 % of control

OCC(O)COCCCCCCCCCCCC1C=CCC1 (stereo not given)
inactive: [3] 99 % of control | [4] 99 % of control | dose: 400.0 mg/kg/injection, schedule: Q04DX003 (ip), vehicle: saline 99 % of control

O=C1NC(=O)N(c2cccc(Cl)c2)C1=O
inactive: dose: 50.0 mg/kg/injection, schedule: Q01DX009 (ip), vehicle: Klucel (hydroxypropylcellulose) (HPC) 106 % of control | dose: 100.0 mg/kg/injection, schedule: Q01DX009 (ip), vehicle: Klucel (hydroxypropylcellulose) (HPC) 109 % of control | dose: 200.0 mg/kg/injection, schedule: Q01DX009 (ip), vehicle: Klucel (hydroxypropylcellulose) (HPC) 102 % of control

CCCCCCCCCCCCCCCCCCCCCCCCC(O)C(=O)NC(CO)C(O)C(O)CCCCCCCCCCCCCC (stereo not given)
inactive: dose: 1.56 mg/kg/injection, schedule: Q04DX003 (ip), vehicle: saline with Tween-80 91 % of control | dose: 3.13 mg/kg/injection, schedule: Q04DX003 (ip), vehicle: saline with Tween-80 100 % of control | dose: 6.25 mg/kg/injection, schedule: Q04DX003 (ip), vehicle: saline with Tween-80 95 % of control

CCCCN(CCCC)CC(O)c1ccc(Br)c2ccccc12 (stereo not given)
inactive: [5] 105 % of control | [6] 102 % of control | [7] 104 % of control

CCOC(=O)C1=C(N)CCCC1
inactive: dose: 50.0 mg/kg/injection, schedule: Q01DX001 (ip), vehicle: Klucel (hydroxypropylcellulose) (HPC) 107 % of control | dose: 100.0 mg/kg/injection, schedule: Q01DX001 (ip), vehicle: Klucel (hydroxypropylcellulose) (HPC) 96 % of control | dose: 200.0 mg/kg/injection, schedule: Q01DX001 (ip), vehicle: Klucel (hydroxypropylcellulose) (HPC) 110 % of control | dose: 400.0 mg/kg/injection, schedule: Q01DX001 (ip), vehicle: Klucel (hydroxypropylcellulose) (HPC) 99 % of control

CC(C)NCCO
inactive: [8] 100 % of control | dose: 50.0 mg/kg/injection, schedule: Q04DX003 (ip), vehicle: saline 100 % of control | [3] 109 % of control | [4] 109 % of control

CC(CN1c2ccccc2Sc2ccccc21)N(C)C (stereo not given)
inactive: dose: 25.0 mg/kg/injection, schedule: Q01DX001 (ip), vehicle: saline 99 % of control | dose: 50.0 mg/kg/injection, schedule: Q01DX001 (ip), vehicle: saline 101 % of control | dose: 100.0 mg/kg/injection, schedule: Q01DX001 (ip), vehicle: saline 95 % of control

O=C(c1ccccc1Cl)n1c(=O)oc2ccccc21
inactive: dose: 50.0 mg/kg/injection, schedule: Q04DX002 (ip), vehicle: Klucel (hydroxypropylcellulose) (HPC) 99 % of control | dose: 100.0 mg/kg/injection, schedule: Q04DX002 (ip), vehicle: Klucel (hydroxypropylcellulose) (HPC) 90 % of control | dose: 200.0 mg/kg/injection, schedule: Q04DX002 (ip), vehicle: Klucel (hydroxypropylcellulose) (HPC) 90 % of control

C/C=C(\C)C(=O)OC1C2C(C)C(=O)OC2C(O)C(C)C2C=CC(=O)C21C (stereo not given)
inactive: dose: 2.5 mg/kg/injection, schedule: Q01DX009 (ip), vehicle: Klucel (hydroxypropylcellulose) (HPC) 100 % of control | dose: 5.0 mg/kg/injection, schedule: Q01DX009 (ip), vehicle: Klucel (hydroxypropylcellulose) (HPC) 106 % of control | dose: 10.0 mg/kg/injection, schedule: Q01DX009 (ip), vehicle: Klucel (hydroxypropylcellulose) (HPC) 99 % of control | dose: 20.0 mg/kg/injection, schedule: Q01DX009 (ip), vehicle: Klucel (hydroxypropylcellulose) (HPC) 108 % of control

C=CC(C)(C)C1Oc2cc(O)ccc2C(=O)C1c1ccc(OC)c(OC)c1O (stereo not given)
inactive: [9] 92 % of control | [10] 100 % of control | [11] 92 % of control

O=C(/N=C1\N=Nc2nc(C(C(=O)c3cccc([N+](=O)[O-])c3Cl)c3nc4n(c3O)/C(=N/C(=O)Nc3ccc(Cl)cc3)N=N4)c(O)n21)Nc1ccc(Cl)cc1 (stereo not given)
inactive: [12] 99 % of control | [13] 100 % of control | [14] 97 % of control

CCCCCCCCCCCCCCCC(=O)Nc1ccn(C2OC(CO)C(O)C2O)c(=O)n1 (stereo not given)
active: dose: 3.12 mg/kg/injection, schedule: Q01DX009 (ip), vehicle: suspension in saline 172 % of control | dose: 6.25 mg/kg/injection, schedule: Q01DX009 (ip), vehicle: suspension in saline 188 % of control | dose: 12.5 mg/kg/injection, schedule: Q01DX009 (ip), vehicle: suspension in saline 191 % of control and 235 % of control | dose: 25.0 mg/kg/injection, schedule: Q01DX009 (ip), vehicle: suspension in saline 260 % of control and 283 % of control

Nc1ncnc2c1ncn2[C@@H](C=O)O[C@@H](C=O)CO
active: dose: 3.13 mg/kg/injection, schedule: Q01DX009 (ip), vehicle: other 155 % of control | dose: 6.25 mg/kg/injection, schedule: Q01DX009 (ip), vehicle: other 150 % of control and 169 % of control

COC(=O)[C@H]1[C@H]2C[C@@H]3c4[nH]c5cc(OC)ccc5c4CCN3C[C@H]2C[C@@H](OC(=O)c2cccc(N)c2)[C@@H]1OC
inactive: [5] 101 % of control | [6] 97 % of control | [7] 97 % of control

c1ccc(-n2cncn2)cc1
inactive: dose: 60.0 mg/kg/injection, schedule: Q01DX005 (ip), vehicle: saline 95 % of control | dose: 120.0 mg/kg/injection, schedule: Q01DX005 (ip), vehicle: saline 100 % of control | dose: 240.0 mg/kg/injection, schedule: Q01DX005 (ip), vehicle: saline 101 % of control

S=c1[nH]c2ccccc2[nH]1
inactive: dose: 6.25 mg/kg/injection, schedule: Q01DX009 (ip), vehicle: saline 98 % of control | dose: 12.5 mg/kg/injection, schedule: Q01DX009 (ip), vehicle: saline 102 % of control | [8] 98 % of control

C=C(C)[C@H]1C[C@@H](O)[C@H]2O[C@@]2(C)C1
inactive: [8] 91 % of control | [1] 90 % of control | [2] 102 % of control

C[C@H]1C[C@H](c2ccccc2)[C@@H](c2ccccc2)C(=O)O1
inactive: [9] 93 % of control | [10] 92 % of control | [11] 92 % of control

COc1cc(/C=C/C=C(C(=O)O)C(=O)O)ccc1OCc1ccccc1
inactive: dose: 50.0 mg/kg/injection, schedule: Q01DX005 (ip), vehicle: Klucel (hydroxypropylcellulose) (HPC) 100 % of control | dose: 100.0 mg/kg/injection, schedule: Q01DX005 (ip), vehicle: Klucel (hydroxypropylcellulose) (HPC) 98 % of control | dose: 200.0 mg/kg/injection, schedule: Q01DX005 (ip), vehicle: Klucel (hydroxypropylcellulose) (HPC) 92 % of control

NOCc1ccccc1CON
inactive: dose: 37.5 mg/kg/injection, schedule: Q01DX009 (ip), vehicle: saline with Tween-80 86 % of control | dose: 75.0 mg/kg/injection, schedule: Q01DX009 (ip), vehicle: saline with Tween-80 91 % of control | dose: 150.0 mg/kg/injection, schedule: Q01DX009 (ip), vehicle: saline with Tween-80 104 % of control

CCO/C=C1\SC(=S)N(c2ccc(C(=O)O)cc2)C1=O
inactive: dose: 4.4 mg/kg/injection, schedule: Q01DX009 (ip), vehicle: saline with Tween-80 104 % of control | dose: 6.6 mg/kg/injection, schedule: Q01DX009 (ip), vehicle: saline with Tween-80 109 % of control | dose: 10.0 mg/kg/injection, schedule: Q01DX009 (ip), vehicle: saline with Tween-80 109 % of control | dose: 15.0 mg/kg/injection, schedule: Q01DX009 (ip), vehicle: saline with Tween-80 109 % of control | dose: 100.0 mg/kg/injection, schedule: Q04DX003 (ip), vehicle: saline with Tween-80 118 % of control | dose: 200.0 mg/kg/injection, schedule: Q04DX003 (ip), vehicle: saline with Tween-80 113 % of control

CCOC(=O)C1=C(C)NC(SC)=NC1c1ccccc1 (stereo not given)
inactive: dose: 60.0 mg/kg/injection, schedule: Q01DX005 (ip), vehicle: Klucel (hydroxypropylcellulose) (HPC) 99 % of control | dose: 120.0 mg/kg/injection, schedule: Q01DX005 (ip), vehicle: Klucel (hydroxypropylcellulose) (HPC) 97 % of control | dose: 240.0 mg/kg/injection, schedule: Q01DX005 (ip), vehicle: Klucel (hydroxypropylcellulose) (HPC) 99 % of control

CC(=O)c1ccccc1OCC(O)CNc1ccc(Cl)cc1C(=O)c1ccccc1 (stereo not given)
inactive: [12] 99 % of control and 92 % of control | [13] 92 % of control | [14] 89 % of control and 96 % of control
